This note sets out measurements from patent US12121561B1, “Composition for treating or preventing insulin resistance” (KING FAISAL UNIVERSITY, priority 2024, dated 2024).

One assay deals with glucose uptake. In words: Glucose uptake with recombinant vWF protein.
The next assay deals with NO production. Description: NO production with recombinant vWF protein.

Turning to “recombinant vWF protein: a recombinant vWF protein with a specific vWF sequence (SEQ ID NO: 1) (EPECNDITARLQYVKVGSCKSEVEVDIHYCQGKCASKAMYSIDINDVQDQCSC; listed as Homo sp.)”, the glucose uptake result in the assay on glucose uptake is “significantly inhibit”. Moreover, the NO production entry in the assay with NO production is “significantly inhibit”.
